# Reference: PMC6792352, “Limited Chemical Structural Diversity Found to Modulate Thyroid Hormone Receptor in the Tox21 Chemical Library” (Environmental Health Perspectives, 2019)
# Where a name gives a salt, the structure may show the parent alone.
# Test: in vitro
# Conditions: rat, gh3-tre-luc cells, AC50 (uM) modified / 1000
row,SMILES,CC50 at 24 h
1,Cc1onc(-c2c(Cl)cccc2Cl)c1C(=O)N[C@@H]1C(=O)N2[C@@H]1SC(C)(C)[C@@H]2C(=O)O [Dicloxacillin sodium salt monohydrate],> 50 µM
2,O=S(=O)(O)c1ccc(O)cc1 [Sodium 4-hydroxybenzenesulfonate],> 90 µM
3,CCN(CC)CCOC(=O)[C@H](Cc1cccc2ccccc12)C[C@H]1CCCO1 [Nafronyl oxalate],> 20 µM
4,CCOC(=O)c1ccccc1C(=O)OCC [Diethyl phthalate],> 90 µM
5,O=C(O)c1ccccc1C(=O)Nc1ccc(S(=O)(=O)Nc2nccs2)cc1 [Phthalylsulfathiazole],> 50 µM
6,CCC[C@@]1(CCc2ccccc2)CC(O)=C([C@H](CC)c2cccc(NS(=O)(=O)c3ccc(C(F)(F)F)cn3)c2)C(=O)O1 [Tipranavir],> 50 µM
7,Cc1cc2c(s1)Nc1ccccc1N=C2N1CCN(C)CC1 [Olanzapine],15.7 µM
8,"O=[N+]([O-])c1cc([N+](=O)[O-])c2ccc(S(=O)(=O)O)cc2c1O [8-Hydroxy-5,7-dinitro-2-naphthalenesulfonic acid]",65.4 µM
9,C[C@@H]1CN(c2c(F)c(N)c3c(=O)c(C(=O)O)cn(C4CC4)c3c2F)C[C@H](C)N1 [Sparfloxacin],> 50 µM
10,CC(C)C(=O)OC(=O)C(C)C [Isobutyric anhydride],> 90 µM
11,CCCCOC(C)=O [Butyl acetate],> 90 µM
12,CCC(=O)OCc1ccccc1 [Benzyl propanoate],> 90 µM
13,CC(C(=O)O)c1ccc(/C=C2\CCCCC2=O)cc1 (stereo not shown) [Pelubiprofen],> 50 µM
14,CCN(CC)CCNC(C(=O)OCCC(C)C)c1ccccc1 (stereo not shown) [Camylofin],> 50 µM
15,C/C=C/C(=O)Oc1ccccc1[N+](=O)[O-] [Dinocap],14.3 µM
16,CCCC(=O)Nc1ccc(OCC(O)CNC(C)C)c(C(C)=O)c1 (stereo not shown) [Acebutolol hydrochloride],> 20 µM
17,N[C@H](C(=O)O)[C@H](O)c1ccc(O)c(O)c1 [Droxidopa],> 50 µM
18,c1ccc(CN(CC2=NCCN2)c2ccccc2)cc1 [Antazoline hydrochloride],21.1 µM
19,CC(=O)Nc1c(I)c(NC(C)=O)c(I)c(C(=O)O)c1I [Diatrizoic acid dihydrate],> 50 µM
20,"O=C(O)c1ccc(Cl)cc1Cl [2,4-Dichlorobenzoic acid]",> 90 µM
21,CN1C(=O)N(c2ccccc2Br)Cc2cnc(Nc3ccc4c(c3)OCC(CO)O4)nc21 (stereo not shown) [PharmaGSID_48519],37.2 µM
22,CCN(CCO)c1cccc(C)c1 [2-(N-Ethyl-m-toluidino)ethanol],> 90 µM
23,COC(=O)C1=C(C)NC(C)=C(C(=O)OCC(C)=O)C1c1ccccc1[N+](=O)[O-] (stereo not shown) [Aranidipine],8.18 µM
24,"O=S(=O)(O)c1ccc2cc(O)c(S(=O)(=O)O)cc2c1 [Disodium 3-hydroxynaphthalene-2,7-disulfonate]",> 90 µM

row,SMILES,CC50 at 24 h
1,CC(C)NC(=O)N1CC(=O)N(c2cc(Cl)cc(Cl)c2)C1=O [Iprodione],> 90 µM
2,CC(=O)c1ccccc1O [2-Hydroxyacetophenone],> 90 µM
3,N#Cc1ccc(CC(=O)c2cccc(C(F)(F)F)c2)cc1 [4-{2-Oxo-2-[3-(trifluoromethyl)phenyl]ethyl}benzonitrile],> 90 µM
4,C=CCOCC(O)CO (stereo not shown) [Glycerol 1-allylether],> 90 µM
5,CCCCCCCCCCCCCCCO [1-Pentadecanol],> 90 µM
6,"CNC(=S)NC [N,N'-Dimethylthiourea]",> 90 µM
7,CCCCC(CC)COC(=O)/C=C/c1ccc(OC)cc1 (stereo not drawn) [2-Ethylhexyl trans-4-methoxycinnamate],> 90 µM
8,"CCCCCCCCCC(=O)N(C)C [N,N-Dimethyldecanamide]",> 90 µM
9,OCCNCCO [Diethanolamine],> 90 µM
10,CC1CCCO1 (stereo not shown) [2-Methyltetrahydrofuran],> 90 µM
11,O=C1O[C@H]2[C@H](O)[C@@H]1OC(O)[C@H]2O (stereo partly shown) [Mannuronic acid lactone],> 50 µM
12,CCCCOc1ccc(N)cc1 [4-Butyloxyaniline],> 90 µM
13,CCOc1cc(-c2nccc3cc(OC)c(OC)cc23)cc(OCC)c1OCC [Octaverine],28.2 µM
14,"CCC1(CO)COCOC1 [(5-Ethyl-1,3-dioxan-5-yl)methanol]",> 90 µM
15,CCC=O [Propanal],> 90 µM
16,CS/C(C)=N\OC(=O)N(C)SN(C)C(=O)O/N=C(\C)SC [Thiodicarb],39.7 µM
17,CCCCOC(=O)CC(CC(=O)OCCCC)(OC(C)=O)C(=O)OCCCC [Acetyl tributyl citrate],> 90 µM
18,CCCC(=O)O[C@]1(C(=O)COC(=O)CC)CC[C@H]2[C@@H]3CCC4=CC(=O)CC[C@]4(C)[C@H]3[C@@H](O)C[C@@]21C [Hydrocortisone buteprate],> 50 µM
19,CCCCCCC(C)(C)C(=O)O [Calcium neodecanoate],> 90 µM
20,CC(C)CCCCCCCCCCCCCCC(=O)O [Isooctadecanoic acid],> 90 µM
21,NC(=O)N1C(=O)/C(=C(\O)c2cccs2)c2cc(Cl)ccc21 [Tenidap],41.8 µM
22,c1cc(CN2CCCCC2)cc(OCCCNc2nc3ccccc3s2)c1 [Zolantidine dimaleate],8.26 µM
23,NC(CO)C(=O)NNCc1ccc(O)c(O)c1O (stereo not shown) [Benserazide hydrochloride],> 50 µM
24,Nc1cccc(C(F)(F)F)c1 [3-(Trifluoromethyl)aniline],> 90 µM

row,SMILES,CC50 at 24 h
1,OCCCc1ccccc1 [3-Phenyl-1-propanol],> 50 µM
2,"OCC=CCO [2-Butene-1,4-diol]",> 90 µM
3,O=[N+]([O-])CCO [2-Nitroethanol],> 100 µM
4,CC(C)N1C(=O)c2ccccc2NS1(=O)=O [Bentazone],> 90 µM
5,O=C(O)c1cc(Oc2ccc(C(F)(F)F)cc2Cl)ccc1[N+](=O)[O-] [Acifluorfen-sodium],> 90 µM
6,OCCN1CCN(CC/C=C2/c3ccccc3Sc3ccc(C(F)(F)F)cc32)CC1 [cis-Flupentixol],12.1 µM
7,"C=C(C)C(=O)OCC(C)(C)COC(=O)C(=C)C [2,2-Dimethylpropane-1,3-diyl bis(2-methylprop-2-enoate)]",> 90 µM
8,CNc1ccccc1 [N-Methylaniline],> 90 µM
9,O=C(O)c1cc(=O)c2ccccc2o1 [Chromocarb],> 50 µM
10,CCN(CC)CCOC(=O)C(c1ccccc1)C1CCCCC1 (stereo not shown) [Drofenine hydrochloride],21.1 µM
11,CC[N+](C)(CC)CCOC(=O)C(O)(c1ccccc1)c1ccccc1 [Benzactyzine methobromide],> 50 µM
12,"N#CCCNCCC#N [3,3'-Iminobispropanenitrile]",> 100 µM
13,O=c1cc[nH]c(=S)[nH]1 [Thiouracil],> 90 µM
14,CCCCNC(C)(C)[PH](=O)O [Butafosfan],> 50 µM
15,CCCCCCOCCO [2-Hexyloxyethanol],> 90 µM
16,CCC(Cc1c(I)cc(I)c(O)c1I)C(=O)O (stereo not shown) [Iophenoxic acid],> 50 µM
17,"CC(C)(C)C(=O)/C=C/c1ccc(Cl)cc1 [1-(4-Chlorophenyl)-4,4-dimethylpent-1-en-3-one]",> 90 µM
18,CCCCCCCCCCCCCBr [1-Bromotridecane],> 90 µM
19,CC(C)OC(=O)C(C)N(C(=O)c1ccccc1)c1ccc(F)c(Cl)c1 (stereo not shown) [Flamprop-isopropyl],50 µM
20,CC[Si](OC(C)=O)(OC(C)=O)OC(C)=O [Ethyltriacetoxysilane],> 90 µM
21,Cc1nc(-c2ccc(Cl)cc2)oc1COC(C)(C)C(=O)O [Romazarit],> 50 µM
22,COc1cc2nc(N3CCN(C(=O)C4COc5ccccc5O4)CC3)nc(N)c2cc1OC (stereo not shown) [Doxazosin mesylate],25.4 µM
23,CCN(CC)c1ccc(C(=C2C=CC(=[N+](CC)CC)C=C2)c2ccc(S(=O)(=O)O)cc2S(=O)(=O)[O-])cc1 [Sulfan blue],> 90 µM

# Same assay, conditions: rat, gh3-tre-luc cells, AC50 (uM) modified / 1000, Tox21_110001=Tox21_111044; viability, 1 nM T3 present, 24 h
row,SMILES,CC50 at 24 h
1,C1CCC(NC2CCCCC2)CC1 [Dicyclohexylamine],> 50 µM

# Same assay, conditions: rat, gh3-tre-luc cells, AC50 (uM) modified / 1000, Tox21_110001=Tox21_111697; viability, 1 nM T3 present, 24 h
row,SMILES,CC50 at 24 h
1,CCNC(C)Cc1cccc(C(F)(F)F)c1 (stereo not shown) [Fenfluramine],> 50 µM

# Same assay, conditions: rat, gh3-tre-luc cells, AC50 (uM) modified / 1000, Tox21_110001=Tox21_200802; viability, 1 nM T3 present, 24 h
row,SMILES,CC50 at 24 h
1,Nc1ccccc1Cl [2-Chloroaniline],> 90 µM

# Same assay, conditions: rat, gh3-tre-luc cells, AC50 (uM) modified / 1000, Tox21_110001=Tox21_201332; viability, 1 nM T3 present, 24 h
row,SMILES,CC50 at 24 h
1,"Cc1ccc([N+](=O)[O-])cc1C [1,2-Dimethyl-4-nitrobenzene]",> 90 µM

# Same assay, conditions: rat, gh3-tre-luc cells, AC50 (uM) modified / 1000, Tox21_110001=Tox21_201731; viability, 1 nM T3 present, 24 h
row,SMILES,CC50 at 24 h
1,CNC(=O)O/N=C(\SC)C(=O)N(C)C [Oxamyl],> 100 µM

# Same assay, conditions: rat, gh3-tre-luc cells, AC50 (uM) modified / 1000, Tox21_110001=Tox21_201771; viability, 1 nM T3 present, 24 h
row,SMILES,CC50 at 24 h
1,C1CCC(NC2CCCCC2)CC1 [Dicyclohexylamine],> 90 µM

# Same assay, conditions: rat, gh3-tre-luc cells, AC50 (uM) modified / 1000, Tox21_110001=Tox21_202753; viability, 1 nM T3 present, 24 h
row,SMILES,CC50 at 24 h
1,O=P(O)(O)CN(CP(=O)(O)O)CP(=O)(O)O [Aminotrimethylene phosphonic acid],> 20 µM

# Same assay, conditions: rat, gh3-tre-luc cells, AC50 (uM) modified / 1000, Tox21_110001=Tox21_300220; viability, 1 nM T3 present, 24 h
row,SMILES,CC50 at 24 h
1,N#Cc1ccc(N(CC(N)=O)CC(F)(F)F)cc1C(F)(F)F [GSK232420A],> 90 µM

# Same assay, conditions: rat, gh3-tre-luc cells, AC50 (uM) modified / 1000, Tox21_110001=Tox21_301156; viability, 1 nM T3 present, 24 h
row,SMILES,CC50 at 24 h
1,CNC(=O)O/N=C(\SC)C(=O)N(C)C [Oxamyl],> 90 µM

# Same assay, conditions: rat, gh3-tre-luc cells, AC50 (uM) modified / 1000, Tox21_110001=Tox21_301566; viability, 1 nM T3 present, 24 h
row,SMILES,CC50 at 24 h
1,CCCN(CC1CC1)c1c([N+](=O)[O-])cc(C(F)(F)F)cc1[N+](=O)[O-] [Profluralin],76.2 µM

# Same assay, conditions: rat, gh3-tre-luc cells, AC50 (uM) modified / 1000, Tox21_110001=Tox21_302242; viability, 1 nM T3 present, 24 h
row,SMILES,CC50 at 24 h
1,CCCCCCCCP(=O)(O)O [Octylphosphonic acid],> 90 µM
